Activity calls are given as the source filed them.
Key:
[1] = Trypanosoma cruzi growth suppression in host cells – NIH3T3 host cells, beta-gal luminescence, confirmation (AID 2044); format: functional, cell-based;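 note: intracellular parasites grown in NIH/3T3 mouse fibroblasts as host cells; luminescent beta-galactosidase reporter signal from transgenic T. cruzi replicating inside host cells; inhibitors lower the luminescence signal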
[2] = T. cruzi infection blockers in NIH3T3 cells – beta-gal luminescence, NIH3T3 host cells, confirmation (AID 2630); format: functional, cell-based; settings: Mus musculus
[3] = Luminescence Cell-Based/Microorganism Confirmation at Dose of Inhibitors of Trypanosoma cruzi Infection. [Related pubchem assays: 1885, 1968 ]; format: functional
[4] = NIH3T3 cell viability loss – ATP luminescence, mouse fibroblasts, counter-screen, dose response (AID 2010); format: functional, cell-based;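 note: cells exposed to compound for about 90 hours before reading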
[5] = cells
[6] = Luminescence Cell-Based Secondary HTS screen to identify cytotoxic compounds of NIH3T3 cells. [Related pubchem assays: 1885, 1968 ]; format: functional
[7] = viability loss of HMLE_sh_eGFP cells – cell-based, luminescence, counter-screen for HMLE_sh_ECad selective toxicity project, dose response (AID 463074); format: functional, Homo sapiens;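 note: HMLE human mammary epithelial cells expressing control shRNA against eGFP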
[8] = Luminescence Cell-Based Dose Retest to Confirm Inhibitors of Cancer Stem Cells. [Related pubchem assays (depositor defined):AID2717, AID2721]; format: functional; settings: Homo sapiens
[9] = target: Tyrosine-protein phosphatase non-receptor type 7 (Homo sapiens, UniProt P35236); format: functional
Chain of Tyrosine-protein phosphatase non-receptor type 7 (P35236 whole entry): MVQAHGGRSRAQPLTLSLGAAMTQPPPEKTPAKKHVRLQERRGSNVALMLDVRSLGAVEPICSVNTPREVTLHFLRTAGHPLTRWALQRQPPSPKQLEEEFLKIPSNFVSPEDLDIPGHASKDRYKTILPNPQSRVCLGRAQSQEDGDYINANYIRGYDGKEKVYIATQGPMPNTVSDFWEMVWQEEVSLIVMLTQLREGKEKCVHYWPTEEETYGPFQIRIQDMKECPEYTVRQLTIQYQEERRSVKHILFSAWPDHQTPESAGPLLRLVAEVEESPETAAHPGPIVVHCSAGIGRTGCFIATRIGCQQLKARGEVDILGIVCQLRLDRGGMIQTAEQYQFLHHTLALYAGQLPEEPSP

[10] = target: T1, Dual specificity protein phosphatase 6 (Rattus norvegicus, UniProt Q64346)
T1 sequence (Q64346 whole entry): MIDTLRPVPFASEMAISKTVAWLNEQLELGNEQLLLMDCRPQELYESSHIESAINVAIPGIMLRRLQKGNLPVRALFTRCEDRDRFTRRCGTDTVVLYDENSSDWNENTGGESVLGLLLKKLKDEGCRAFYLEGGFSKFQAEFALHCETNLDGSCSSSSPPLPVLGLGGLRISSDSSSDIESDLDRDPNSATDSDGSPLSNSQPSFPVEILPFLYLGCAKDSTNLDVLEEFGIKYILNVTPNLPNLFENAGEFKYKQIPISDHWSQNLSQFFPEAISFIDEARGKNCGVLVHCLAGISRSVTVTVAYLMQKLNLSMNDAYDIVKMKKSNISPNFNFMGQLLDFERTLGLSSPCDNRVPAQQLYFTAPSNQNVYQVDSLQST

[11] = target: Glyceraldehyde-3-phosphate dehydrogenase (Homo sapiens, UniProt P04406)
Chain of Glyceraldehyde-3-phosphate dehydrogenase (P04406 whole entry): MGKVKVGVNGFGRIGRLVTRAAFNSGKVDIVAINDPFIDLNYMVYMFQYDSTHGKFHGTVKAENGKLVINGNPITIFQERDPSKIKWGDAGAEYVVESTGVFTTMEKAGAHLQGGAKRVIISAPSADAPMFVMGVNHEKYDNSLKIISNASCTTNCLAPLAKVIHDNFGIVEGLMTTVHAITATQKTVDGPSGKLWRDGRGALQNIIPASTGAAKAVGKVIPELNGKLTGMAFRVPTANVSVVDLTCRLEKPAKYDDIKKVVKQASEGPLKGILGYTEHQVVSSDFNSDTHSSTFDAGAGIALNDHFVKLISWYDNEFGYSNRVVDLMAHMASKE

[12] = target: T1, Dual specificity protein phosphatase 6; format: functional
[13] = target: Mu-type opioid receptor (Homo sapiens, UniProt P35372); experiment: HTS Image-Based Screen for Agonists of the MOR Receptor. [Related pubchem assays (depositor defined):AID1777, AID1785, AID1786, AID2133]; format: functional;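 note: imaging of beta-arrestin GFP recruitment into spots after receptor activation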
Chain of Mu-type opioid receptor (P35372 whole entry): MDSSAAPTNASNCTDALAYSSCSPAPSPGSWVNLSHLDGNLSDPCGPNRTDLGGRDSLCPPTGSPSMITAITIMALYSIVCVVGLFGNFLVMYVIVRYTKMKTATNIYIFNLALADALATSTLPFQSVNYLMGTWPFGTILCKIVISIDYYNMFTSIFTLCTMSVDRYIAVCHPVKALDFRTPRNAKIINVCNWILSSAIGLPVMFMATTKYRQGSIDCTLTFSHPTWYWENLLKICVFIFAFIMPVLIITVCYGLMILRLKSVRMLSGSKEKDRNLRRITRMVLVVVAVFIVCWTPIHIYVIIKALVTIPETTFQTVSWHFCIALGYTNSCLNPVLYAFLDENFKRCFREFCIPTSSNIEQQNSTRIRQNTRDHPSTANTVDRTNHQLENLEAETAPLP

[14] = test system: Vero; experiment: cells; format: functional, cell-based; settings: Chlorocebus sabaeus
[15] = non-specific 3'UTR reporter inhibition in Clone20-Shn3RL – cell-based, Renilla luciferase, cherry-picked, counter-screen for Shn3 inhibitor project, dose response (AID 624133); format: functional
[16] = NIH-3T3 fibroblast cytotoxicity, dose response, cytotoxicity control, cell-based, fluorescence, Alamar Blue, secondary assay (AID 2327); format: functional;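 note: NIH-3T3 mouse fibroblasts cultured with fluconazole at 8 µg/mL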
[17] = reduction of Shn3 3'UTR-driven luciferase in osteoblasts – cell-based, Clone20 osteoblasts, firefly luciferase, cherry-picked, dose response (AID 624132); format: functional;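 note: firefly luciferase luminescence from reporter carrying the Shn3 3'UTR in osteoblasts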
[18] = target: T2, Ubiquitin-conjugating enzyme E2 N (Homo sapiens, UniProt P61088); format: functional
T2 sequence (P61088 whole entry): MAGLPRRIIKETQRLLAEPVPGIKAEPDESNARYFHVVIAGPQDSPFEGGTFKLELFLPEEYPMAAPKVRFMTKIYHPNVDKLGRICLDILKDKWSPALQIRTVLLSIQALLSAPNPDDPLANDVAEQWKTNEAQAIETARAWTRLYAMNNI

[19] = fluconazole-exposed Candida albicans growth modulators – fluorescence, retest, confirmation (AID 2467); format: functional, cell-based
[20] = target: T3, Kappa-type opioid receptor (Homo sapiens, UniProt P41145); format: functional
T3 sequence (P41145 whole entry): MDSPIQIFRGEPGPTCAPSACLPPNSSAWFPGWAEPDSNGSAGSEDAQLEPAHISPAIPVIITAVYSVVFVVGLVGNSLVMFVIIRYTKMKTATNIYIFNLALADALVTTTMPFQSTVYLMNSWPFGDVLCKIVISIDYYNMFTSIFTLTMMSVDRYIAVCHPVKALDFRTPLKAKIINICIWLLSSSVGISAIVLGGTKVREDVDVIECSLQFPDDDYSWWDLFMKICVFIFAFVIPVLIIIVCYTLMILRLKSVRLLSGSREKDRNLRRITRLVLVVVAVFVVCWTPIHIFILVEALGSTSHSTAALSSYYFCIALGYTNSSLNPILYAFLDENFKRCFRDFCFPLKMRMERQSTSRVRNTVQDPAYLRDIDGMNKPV

[21] = target: T2, Ubiquitin-conjugating enzyme E2 N; format: functional; remark: listed apart in the source
[22] = test system: Vero; experiment: cells; format: functional; settings: Chlorocebus sabaeus
[23] = test system: Streptococcus sp. 'group A'; experiment: Streptococcus pyogenes SK(-)GAS viability under kanamycin – luminescence, BacTiterGlo, confirmation, counter-screen for streptokinase expression inhibitor project, dose response (AID 1900); format: functional, organism-based
[24] = test system: Streptococcus; experiment: GAS UMAA2166 growth inhibition – luminescence, BacTiterGlo, counter-screen for streptokinase expression inhibitor project, dose response (AID 1915); format: functional, organism-based;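 note: potency for reduction of bacterial viability or growth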
[25] = target: Cytochrome P450 2C19 (Homo sapiens, UniProt P33261); experiment: Cytochrome panel assay with activity outcomes. Panel member name: p450-cyp2c19 Compounds with AC50 equal or less than 10 uM are considered active; format: functional; settings: read-out: AC50
Chain of Cytochrome P450 2C19 (P33261 whole entry): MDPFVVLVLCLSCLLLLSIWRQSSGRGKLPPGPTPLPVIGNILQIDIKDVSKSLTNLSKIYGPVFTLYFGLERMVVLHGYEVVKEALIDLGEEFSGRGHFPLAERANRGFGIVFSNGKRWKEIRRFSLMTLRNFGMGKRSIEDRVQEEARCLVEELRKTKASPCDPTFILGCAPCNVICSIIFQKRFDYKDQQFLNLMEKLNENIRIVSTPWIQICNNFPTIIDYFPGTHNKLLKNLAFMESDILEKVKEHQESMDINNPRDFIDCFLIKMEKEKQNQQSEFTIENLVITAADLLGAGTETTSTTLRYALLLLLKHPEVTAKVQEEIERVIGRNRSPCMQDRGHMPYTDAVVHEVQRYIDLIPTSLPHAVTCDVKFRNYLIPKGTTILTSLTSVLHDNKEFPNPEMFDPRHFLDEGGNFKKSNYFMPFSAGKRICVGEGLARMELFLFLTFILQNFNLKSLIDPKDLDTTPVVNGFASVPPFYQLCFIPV

[26] = target: T3, Kappa-type opioid receptor; format: functional; remark: listed apart in the source
[27] = target: T4, Bcl-2-related protein A1 (Mus musculus, UniProt Q07440); format: functional;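 note: confirmatory dose–response counterscreen on Bfl-1, used to check hits from a UBC13 polyubiquitin inhibitor campaign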
T4 sequence (Q07440 whole entry): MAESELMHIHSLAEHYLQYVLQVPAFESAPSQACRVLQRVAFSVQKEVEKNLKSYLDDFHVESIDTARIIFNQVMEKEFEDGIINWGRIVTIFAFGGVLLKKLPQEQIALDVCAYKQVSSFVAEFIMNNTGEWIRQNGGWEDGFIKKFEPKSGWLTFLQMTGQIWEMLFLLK

[28] = target: T5, Serine/threonine-protein phosphatase (Candida dubliniensis (strain CD36 / CBS 7987 / NCPF 3949 / NRRLY-17841) (Yeast), UniProt B9W6M3); experiment: blockers of CaCl2-induced CDRE-lacZ signaling – S. cerevisiae, luminescence, secondary, dose response (AID 2388); format: functional, cell-based;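 note: yeast reporter cells carrying a calcineurin-responsive lacZ construct stimulated with calcium chloride; luminescent beta-galactosidase reporter signal in whole cells rather than isolated phosphatase activity; potency for inhibition where a drop in reporter signal means calcineurin blockade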
T5 sequence (B9W6M3 whole entry): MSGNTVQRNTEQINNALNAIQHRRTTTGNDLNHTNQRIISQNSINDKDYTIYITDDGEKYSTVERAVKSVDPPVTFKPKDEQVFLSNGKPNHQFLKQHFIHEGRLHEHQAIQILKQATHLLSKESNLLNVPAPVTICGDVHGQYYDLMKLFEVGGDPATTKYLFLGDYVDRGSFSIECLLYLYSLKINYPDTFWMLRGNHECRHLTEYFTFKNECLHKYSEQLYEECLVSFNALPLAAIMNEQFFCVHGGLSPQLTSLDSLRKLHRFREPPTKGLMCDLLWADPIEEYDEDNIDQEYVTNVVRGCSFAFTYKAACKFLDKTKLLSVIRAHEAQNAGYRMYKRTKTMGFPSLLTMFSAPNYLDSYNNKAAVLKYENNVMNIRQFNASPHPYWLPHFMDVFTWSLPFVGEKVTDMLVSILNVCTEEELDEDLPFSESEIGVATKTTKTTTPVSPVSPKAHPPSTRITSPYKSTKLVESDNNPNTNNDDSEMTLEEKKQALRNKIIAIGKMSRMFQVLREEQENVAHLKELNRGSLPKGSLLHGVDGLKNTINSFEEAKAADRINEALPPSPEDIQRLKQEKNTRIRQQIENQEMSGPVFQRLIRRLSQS

[29] = target: T6, Beta-galactosidase (Escherichia coli, UniProt Q8VNN2); format: functional
T6 sequence (Q8VNN2 whole entry): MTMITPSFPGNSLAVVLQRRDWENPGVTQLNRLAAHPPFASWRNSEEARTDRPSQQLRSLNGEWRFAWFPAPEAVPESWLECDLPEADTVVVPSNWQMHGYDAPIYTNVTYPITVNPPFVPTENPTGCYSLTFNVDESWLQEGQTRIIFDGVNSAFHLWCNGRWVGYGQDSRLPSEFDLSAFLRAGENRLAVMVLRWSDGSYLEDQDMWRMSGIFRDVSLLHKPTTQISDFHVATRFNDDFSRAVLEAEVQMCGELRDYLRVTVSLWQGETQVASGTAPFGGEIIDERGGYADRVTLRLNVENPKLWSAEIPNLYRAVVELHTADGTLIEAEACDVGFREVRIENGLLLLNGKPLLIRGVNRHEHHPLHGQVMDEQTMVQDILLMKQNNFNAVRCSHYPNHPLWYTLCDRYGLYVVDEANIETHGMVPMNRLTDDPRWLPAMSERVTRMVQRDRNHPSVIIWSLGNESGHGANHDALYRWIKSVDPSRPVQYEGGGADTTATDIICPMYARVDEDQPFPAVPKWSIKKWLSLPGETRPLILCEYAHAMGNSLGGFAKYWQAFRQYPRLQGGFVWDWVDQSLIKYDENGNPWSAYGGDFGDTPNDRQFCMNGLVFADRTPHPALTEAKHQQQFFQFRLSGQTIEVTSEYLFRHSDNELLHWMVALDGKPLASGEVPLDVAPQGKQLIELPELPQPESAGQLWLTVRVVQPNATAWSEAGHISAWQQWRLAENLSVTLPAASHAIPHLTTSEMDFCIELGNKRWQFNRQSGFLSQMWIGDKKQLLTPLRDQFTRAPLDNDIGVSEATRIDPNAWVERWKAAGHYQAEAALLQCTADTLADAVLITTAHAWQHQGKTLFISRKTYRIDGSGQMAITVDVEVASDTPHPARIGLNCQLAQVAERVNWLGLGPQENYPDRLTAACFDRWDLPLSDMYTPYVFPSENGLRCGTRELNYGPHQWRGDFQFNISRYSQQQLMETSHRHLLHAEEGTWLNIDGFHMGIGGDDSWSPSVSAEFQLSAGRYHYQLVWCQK

[30] = target: T7, Delta-type opioid receptor (Homo sapiens, UniProt P41143); experiment: HTS Image-Based Screen for Antagonists of the DOR Receptor. [Related pubchem assays (depositor defined):AID1777, AID1785, AID1786, AID2133]; format: functional
T7 sequence (P41143 whole entry): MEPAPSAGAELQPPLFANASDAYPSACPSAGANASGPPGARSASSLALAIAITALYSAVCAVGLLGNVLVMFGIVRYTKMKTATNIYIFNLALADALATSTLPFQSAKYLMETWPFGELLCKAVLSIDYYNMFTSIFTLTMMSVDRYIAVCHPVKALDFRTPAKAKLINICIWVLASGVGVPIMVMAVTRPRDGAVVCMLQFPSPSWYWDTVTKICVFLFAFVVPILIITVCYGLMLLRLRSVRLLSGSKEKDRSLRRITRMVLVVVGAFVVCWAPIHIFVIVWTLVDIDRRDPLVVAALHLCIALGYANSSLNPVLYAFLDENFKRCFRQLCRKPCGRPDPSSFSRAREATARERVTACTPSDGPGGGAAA

[31] = target: T7, Delta-type opioid receptor; experiment: HTS Image-Based Screen for Agonists of the DOR Receptor. [Related pubchem assays (depositor defined):AID1777, AID1786, AID2133]; format: functional
[32] = target: T6, Beta-galactosidase; experiment: PubChem AID 485352; format: functional
[33] = loss of viability in HepG2 cells – cell-based, CellTiter-Glo, cherry-picked, cytotoxicity control for Shn3 inhibitor project, dose response (AID 624134); format: functional
[34] = target: ATP-dependent molecular chaperone HSP82 (Candida albicans (strain WO-1) (Yeast), UniProt C4YTQ8); experiment: steroid-induced GRE reporter decrease in yeast – S. cerevisiae, luminescence, Hsp90 inhibitor project, dose response (AID 2400); format: functional, cell-based;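 note: beta-galactosidase luminescence from glucocorticoid response element reporter as proxy for Hsp90 function; inhibitor potency where signal loss means Hsp90 inhibition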
Chain of ATP-dependent molecular chaperone HSP82 (C4YTQ8 whole entry): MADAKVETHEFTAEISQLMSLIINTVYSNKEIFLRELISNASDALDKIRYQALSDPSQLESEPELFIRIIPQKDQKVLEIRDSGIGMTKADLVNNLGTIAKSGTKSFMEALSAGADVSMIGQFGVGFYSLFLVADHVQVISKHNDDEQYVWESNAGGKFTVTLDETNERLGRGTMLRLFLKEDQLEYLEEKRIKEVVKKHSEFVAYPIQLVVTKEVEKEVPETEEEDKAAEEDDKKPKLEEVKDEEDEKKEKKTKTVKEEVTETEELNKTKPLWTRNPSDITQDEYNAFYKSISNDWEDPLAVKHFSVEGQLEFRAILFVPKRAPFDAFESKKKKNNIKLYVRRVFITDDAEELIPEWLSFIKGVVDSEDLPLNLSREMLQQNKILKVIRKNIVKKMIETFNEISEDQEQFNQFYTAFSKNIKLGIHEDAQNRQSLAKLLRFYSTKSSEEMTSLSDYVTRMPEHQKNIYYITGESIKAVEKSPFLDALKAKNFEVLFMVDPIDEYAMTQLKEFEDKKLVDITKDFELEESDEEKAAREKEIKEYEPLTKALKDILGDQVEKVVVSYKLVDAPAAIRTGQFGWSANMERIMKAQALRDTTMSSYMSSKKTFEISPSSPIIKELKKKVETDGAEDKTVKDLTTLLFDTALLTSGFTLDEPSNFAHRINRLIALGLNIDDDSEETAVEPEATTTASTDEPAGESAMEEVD

[35] = target: T8, Type-1 angiotensin II receptor (Homo sapiens, UniProt P30556); experiment: antagonism of angiotensin II type 1 receptor – cell-based, uHTS hits, selectivity assay for APJ receptor antagonist project, dose response (AID 463214); format: functional;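 note: antagonist potency against angiotensin II stimulated AT1 response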
T8 sequence (P30556 whole entry): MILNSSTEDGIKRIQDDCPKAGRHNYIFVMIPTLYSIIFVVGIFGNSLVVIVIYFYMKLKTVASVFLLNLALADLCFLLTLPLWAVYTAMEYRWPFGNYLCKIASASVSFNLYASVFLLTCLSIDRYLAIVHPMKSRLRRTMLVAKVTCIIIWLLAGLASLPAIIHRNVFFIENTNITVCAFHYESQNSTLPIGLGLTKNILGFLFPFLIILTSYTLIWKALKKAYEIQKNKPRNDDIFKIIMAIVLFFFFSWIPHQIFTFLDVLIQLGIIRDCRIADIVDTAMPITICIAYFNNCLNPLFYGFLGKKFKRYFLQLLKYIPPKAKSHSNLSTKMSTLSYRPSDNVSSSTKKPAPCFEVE

In the case of `O=S(=O)(NCC(c1cccnc1)N1CCN(c2ccc(F)cc2)CC1)c1ccccc1` (stereo not given), the EC50 [1] is reported as < 0.1 µM (active), the EC50 [2] is reported as 0.057 µM (active) and the EC50 [3] is reported as 0.057 µM (active). The EC50 [4] was > 60 µM (not active), the EC50 [5] was 0.066 µM (active) and the EC50 [6] was > 195 µM (not active).
For `COc1cc(OC)cc(-c2c(-c3cccs3)c3cc(-c4ccc(N(C)C)nc4)ccc3n2C)c1`, the AC50 [7] was 109 µM (active) and the AC50 [8] was 28.5 µM (active).
For `Cc1ccccc1Cn1c(=O)n(-c2ccccc2)c(=O)n([C@@H](C)C(N)=O)c1=O`, the IC50 [9] was > 100 µM (not active), the IC50 [10] was > 100 µM (inactive) and the IC50 [11] was > 100 µM (not active). For the same compound, the IC50 [12] was > 100 µM (inactive).
With `CCCOc1ccc(C(=O)NNC(=S)NC(=O)CC)cc1` the EC50 [13] was > 32 µM (inactive), the IC50 [14] was > 25 µM (active) and the AC50 [15] was 4.18 µM (active). The EC50 [16] was 35.1 µM (active), the AC50 [17] was 24.4 µM (active) and the IC50 [18] was 7.86 µM (active). For the same compound, the EC50 [19] was 0.384 µM (active), the IC50 [20] was > 32 µM and the IC50 [21] was 9.02 µM (active). The CC50 [22] was 21.3 µM (active), the EC50 [23] was 0.612 µM (active) and the EC50 [24] was 2.48 µM (active). The AC50 [25] was 20 µM (inconclusive), the IC50 [26] was 7.95 µM (active) and the IC50 [27] was > 20 µM (inactive). For the same compound, the EC50 [28] was > 180 µM (inactive), the EC50 [29] was > 31.5 µM (inactive) and the IC50 [30] was > 32 µM (inactive). For the same compound, the EC50 [31] was > 32 µM (inactive), the EC50 [32] was > 40 µM (inactive) and the AC50 [33] was > 70 µM (inactive). The EC50 [34] was 20.1 µM (active) and the IC50 [35] was 7.14 µM (active).

Reference: ChEMBL document CHEMBL1201862, “PubChem BioAssay data set” (2004)
